The results in this text go back to PMC10982999, “Structure-Guided Design and Optimization of Covalent VHL-Targeted Sulfonyl Fluoride PROTACs” (Journal of Medicinal Chemistry, 2024).

This experiment deals with T1, AR (AR-HiBiT LNCaP cells) (Homo sapiens, UniProt P10275, T878A).
T1 construct: host or cells: AR-HiBiT KI LNCaP
T1 sequence (P10275 1-920 T878A): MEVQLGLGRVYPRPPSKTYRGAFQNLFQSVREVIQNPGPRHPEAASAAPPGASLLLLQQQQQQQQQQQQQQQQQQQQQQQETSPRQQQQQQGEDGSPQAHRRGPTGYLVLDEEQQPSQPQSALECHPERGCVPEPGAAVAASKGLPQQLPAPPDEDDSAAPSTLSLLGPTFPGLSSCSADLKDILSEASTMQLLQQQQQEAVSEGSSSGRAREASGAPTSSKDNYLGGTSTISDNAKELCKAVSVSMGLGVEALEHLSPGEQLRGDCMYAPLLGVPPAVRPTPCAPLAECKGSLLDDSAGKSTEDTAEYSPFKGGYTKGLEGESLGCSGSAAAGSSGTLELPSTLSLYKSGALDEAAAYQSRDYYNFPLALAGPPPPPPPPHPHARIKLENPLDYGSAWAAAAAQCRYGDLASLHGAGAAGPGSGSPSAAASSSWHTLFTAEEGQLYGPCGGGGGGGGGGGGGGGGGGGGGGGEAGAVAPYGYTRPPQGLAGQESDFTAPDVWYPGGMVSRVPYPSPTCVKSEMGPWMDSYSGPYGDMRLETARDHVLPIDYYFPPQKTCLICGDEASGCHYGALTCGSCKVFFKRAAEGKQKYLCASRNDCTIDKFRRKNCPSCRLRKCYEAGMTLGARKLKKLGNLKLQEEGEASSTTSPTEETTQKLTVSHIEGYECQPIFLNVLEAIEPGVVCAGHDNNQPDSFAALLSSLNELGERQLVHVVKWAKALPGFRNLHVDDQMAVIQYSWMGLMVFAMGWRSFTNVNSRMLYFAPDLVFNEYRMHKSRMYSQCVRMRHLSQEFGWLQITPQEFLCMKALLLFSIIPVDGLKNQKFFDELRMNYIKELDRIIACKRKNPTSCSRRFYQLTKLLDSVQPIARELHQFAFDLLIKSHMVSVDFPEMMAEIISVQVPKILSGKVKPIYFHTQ
Kind of experiment: AR HiBiT degradation assay. It is filed as cell-based. The following applies: read-out: AR DC50. The method, then:
Cellular BRD4/AR HiBiT assay
The HiBiT tagged cells were seeded at 10,000 cells per well in a 384-well plate (Thermo Scientific, 164610) at 25 µL per well in DMEM media containing 10% FBS and incubated overnight. Compounds were dispensed using D300e Digital Dispenser (HP) and normalized to 0.1% DMSO. Cells were pre-treated with Epoxomicin or MLN4924 for 3 h before treatment […]
Nano -Glo HiBiT lytic detection assay was performed as described in the manufacturer protocol (Promega). 25 µL of premixed detection reagent was added to each well of the 384 well assay plate and incubated for 15 min on an orbital shaker (at 600 RPM), and luminescence was read using a PHERAstar FS plate reader (BMG Labtech). Corresponding background RLU values were subtracted from DMSO control values and the percentage of protein (%) of were then calculated against […]
DMSO-treated controls. […]
1:1000 WB), Tubulin (Sigma #4967S 1:5000 WB).
A general note: The HiBiT peptide binds its large partner to form an active luciferase.

With `Cc1cc([C@H](C(=O)N2C[C@H](S(=O)(=O)F)C[C@H]2C(=O)N[C@@H](CC(=O)OC(C)(C)C)c2ccc(-c3scnc3C)cc2)C(C)C)on1` [VHL-SF2, tert-Butyl (S)-3-((2S,4R)-4-(Fluorosulfonyl)-1-((R)-3-methyl-2-(3-methylisoxazol-5-yl)butanoyl)pyrr-olidine-2-carboxamido)-3-(4-(4-methylthiazol-5-yl)phenyl)propanoate], the DC50 was over 75 µM.

What is called DC50 is the concentration giving 50% degradation.
